Results taken from patent US7125854B2, “Bicyclic carbohydrates as antiprotozoal bioactive for the treatment of infections caused by parasites” (Kemin Pharma B.V.B.A., priority 2003, dated 2006).
Read-outs that look alike come from different tables or passages of the source. Blank lines part the entries; values can stand above or below the compound they belong to.

Tests used:
P. falciparum [1] = test: WHO screening against P. falciparum (Table 1); assay type: cell-based; settings: Plasmodium falciparum; Table 1, WHO screening
Text: (§1) Compound A1 was screened against Trypanosoma brucei by World Health Organization (Switzerland) using its established screening service.

P. falciparum [2] = test: Screening against P. falciparum (Table 2); assay type: cell-based, Plasmodium falciparum
T. cruzi [3] = test: WHO screening against T. cruzi (Table 1); assay type: cell-based, Trypanosoma cruzi; settings: Table 1, WHO screening
T. brucei rhodesiense [4] = test: WHO screening against Trypanosoma brucei (Table 1); assay type: cell-based; settings: read-out: IC50 T. brucei rhodesiense
Text: as §1

human cell line (MRC-5) = test: Cytotoxicity assay on a human cell line (MRC-5); assay type: cell-based; settings: read-out: Cytox
T. cruzi [5] = test: Screening against T. cruzi (Table 2); assay type: cell-based, Trypanosoma cruzi
T. brucei rhodesiense [6] = test: Screening against T. brucei rhodesiense (Table 2); assay type: cell-based, Trypanosoma brucei rhodesiense
[7] = test system: Leishmania donovani MHOM/ET/67/L82; test: Leishmania donovani amastigotes in primary peritoneal mouse macrophages, parasite growth after 96 hours; assay type: cell-based; settings: 96 hours of incubation, read-out: IC50 L. donovani
Experimental: One strain of Leishmania spp. (Leishmania.donovani MHOM/ET/67/L82) is used. The strain is maintained in the hamster. Amastigotes are collected from the spleen of an infected hamster and spleen parasite burden is assessed using the Stauber technique or amastigotes are counted in the haemocytometer after 1:100 dilution in trypan blue.
Primary peritoneal mouse (CDI or NMRI) macrophages are collected 1 day after a macrophage production stimulation with an i.p injection of 2 ml of 2% starch in distilled water. All cultures and assays are conducted at 37° C. under an atmosphere of 5% CO2. Ten mg/ml compound stock solutions are prepared as advised by the supplier, otherwise dissolved in 100% DMSO. Stock solutions are kept at 4° C. for a maximum of 2 weeks, thereafter at −20° C. The compounds are pre-diluted to 1 mg/ml. Assays are performed in sterile 16-well tissue culture slides, each well containing 100 μl of the compound dilutions together with 100 μl of macrophage/parasite inoculum (4×10^5 macrophages/ml and 1.2×10^6 parasites/ml). The inoculum is prepared in RPMI-1640 medium, supplemented with 10% heat inactivated fetal calf serum. […] After 96 hours of incubation, parasite growth is microscopically assessed after staining the cells with a 10% Giemsa solution. The results are expressed as IC50 calculated by linear regression analysis. […]

L-6 mammalian cells = test: Cytotoxicity assay on L-6 mammalian cells; assay type: cell-based
sleeping sickness = settings: cited from earlier work
[8] = Trypanosoma brucei, RHODESIENSE

IC50 (P. falciparum [1]): 0.014 µM | IC50 (P. falciparum [2]; Plasmodium falciparum): 0.005 µM
SMILES: CCN(CC)CCCC(C)Nc1ccnc2cc(Cl)ccc12 (stereo not shown) [Chloroquine]

SMILES: O[C@@H]1[C@@H](O)[C@H](Sc2ccccc2)O[C@@H]2CO[C@@H](c3ccccc3)O[C@@H]12 [Compound A1]
IC50 (T. cruzi [3]): > 32 µM | IC50 (T. brucei rhodesiense [4]; Table 1, WHO screening): 0.187 µM | IC50 (human cell line (MRC-5)): > 32 µM

IC50 (P. falciparum [2]): > 13.3 µM | IC50 (T. cruzi [5]): 14.3 µM | IC50 (T. brucei rhodesiense [6]): 20.4 µM | IC50 [7]: < 0.98 µM
SMILES: OC1C(Cc2ccccc2)OC2COC(c3ccc(Cl)cc3)OC2C1O (stereo not shown) [Compound A3]
IC50 (L-6 mammalian cells): 60 µM

SMILES: Nc1nc(N)nc(Nc2ccc([As]3SCC(CO)S3)cc2)n1 (stereo not shown) [Melarsoprol]
IC50 (T. brucei rhodesiense [6]; [8]): 0.01 µM | patients treated killed outright (sleeping sickness; patients, injected): 3–10% | patients the drug fails to cure (sleeping sickness; some areas of Africa (Omugo, Uganda; Ibba, South Sudan)): 25–30%

IC50 ([7]; Leishmania donovani, Macrophage): 0.47 µM
SMILES: CCCCCCCCCCCCCCCCOP(=O)([O-])OCC[N+](C)(C)C [Miltefosine]

IC50 (T. cruzi [3]; Trypanosoma cruzi): 1.24 µM
SMILES: CC1CS(=O)(=O)CCN1/N=C/c1ccc([N+](=O)[O-])o1 (stereo not shown) [Nifurtimox]

SMILES: Cc1ccc(C(=O)Nc2ccc(S(=O)(=O)O)c3cc(S(=O)(=O)O)cc(S(=O)(=O)O)c23)cc1NC(=O)c1cccc(NC(=O)Nc2cccc(C(=O)Nc3cc(C(=O)Nc4ccc(S(=O)(=O)O)c5cc(S(=O)(=O)O)cc(S(=O)(=O)O)c45)ccc3C)c2)c1 [Suramin]
IC50 (T. brucei rhodesiense [4]; [8]): 0.21 µM
